Assay results published in PMC11530689, “Anti colorectal cancer activity and in silico studies of novel pyridine nortopsentin analog as cyclin dependent kinase 6 inhibitor” (Scientific Reports, 2024).

Tests used:
Experiment in all cases: NCI 60 cell line screen
Format in all cases: cell-based
MDA-MB-231/ATCC = conditions: Breast Cancer, single concentration 10^−5 M
Experimental: (§1) The cytotoxic activity of nortopsintin analogs (4a-4j) was determined by the national cancer institute (NCI, Bethesda, Maryland, USA) against 60 different cancer cell lines at a single concentration of (10^-5 M). For the determination of IC50 value, we used MTT assay kit (Sigma) according to the manufacturer's protocol. HCT-116 cells were seeded into a 96-well plate at a concentration of 20,000 cells/well. After 24 h, the media was aspirated and replaced with serum-free media containing serial dilutions of the 4i compound. […] The percentage of cytotoxicity was calculated using the following equation: % Cytotoxicity = [1 - ([…])] × 100.

CCRF-CEM = conditions: Leukemia, single concentration 10^−5 M
Experimental: as §1

SF-295 = conditions: SF-295, CNS Cancer; single concentration 10^−5 M
Experimental: as §1

OVCAR-5 = conditions: OVCAR-5, Ovarian Cancer; single concentration 10^−5 M
Experimental: as §1

MOLT-4 = conditions: MOLT-4, Leukemia; single concentration 10^−5 M
Experimental: as §1

T-47D = conditions: Breast Cancer, single concentration 10^−5 M
Experimental: as §1

HL-60 (TB) = conditions: Leukemia, single concentration 10^−5 M
Experimental: as §1

M14 = conditions: M14, Melanoma; single concentration 10^−5 M
Experimental: as §1

COLO205 = conditions: COLO205, Colon Cancer; single concentration 10^−5 M
Experimental: as §1

SK-MEL-2 = conditions: SK-MEL-2, Melanoma; single concentration 10^−5 M
Experimental: as §1

HOP-62 = conditions: HOP-62, Non-Small Cell Lung Cancer; single concentration 10^−5 M
Experimental: as §1

SNB-19 = conditions: SNB-19, CNS Cancer; single concentration 10^−5 M
Experimental: as §1

RPMI-8226 = conditions: RPMI-8226, Leukemia; single concentration 10^−5 M
Experimental: as §1

K-562 = conditions: K-562, Leukemia; single concentration 10^−5 M
Experimental: as §1

LOX IMVI = conditions: Melanoma, single concentration 10^−5 M
Experimental: as §1

SNB-75 = conditions: SNB-75, CNS Cancer; single concentration 10^−5 M
Experimental: as §1

U251 = conditions: U251, CNS Cancer; single concentration 10^−5 M
Experimental: as §1

RXF 393 = conditions: RXF 393, Renal Cancer; single concentration 10^−5 M
Experimental: as §1

NCI-H460 = conditions: NCI-H460, Non-Small Cell Lung Cancer; single concentration 10^−5 M
Experimental: as §1

SF-268 = conditions: SF-268, CNS Cancer; single concentration 10^−5 M
Experimental: as §1

UO-31 = conditions: UO-31, Renal Cancer; single concentration 10^−5 M
Experimental: as §1

DU-145 = conditions: DU-145, Prostate Cancer; single concentration 10^−5 M
Experimental: as §1

SW-620 = conditions: SW-620, Colon Cancer; single concentration 10^−5 M
Experimental: as §1

SN12C = conditions: Renal Cancer, single concentration 10^−5 M
Experimental: as §1

PC-3 = conditions: PC-3, Prostate Cancer; single concentration 10^−5 M
Experimental: as §1

KM12 = conditions: KM12, Colon Cancer; single concentration 10^−5 M
Experimental: as §1

SR = conditions: Leukemia, single concentration 10^−5 M
Experimental: as §1

CAKI-1 = conditions: CAKI-1, Renal Cancer; single concentration 10^−5 M
Experimental: as §1

HS 578T = conditions: Breast Cancer, single concentration 10^−5 M
Experimental: as §1

HT29 = conditions: HT29, Colon Cancer; single concentration 10^−5 M
Experimental: as §1

IGROV1 = conditions: IGROV1, Ovarian Cancer; single concentration 10^−5 M
Experimental: as §1

BT-549 = conditions: BT-549, Breast Cancer; single concentration 10^−5 M
Experimental: as §1

MCF7 = conditions: MCF7, Breast Cancer; single concentration 10^−5 M
Experimental: as §1

MALME-3M = conditions: Melanoma, single concentration 10^−5 M
Experimental: as §1

HCC-2998 = conditions: HCC-2998, Colon Cancer; single concentration 10^−5 M
Experimental: as §1

TK-10 = conditions: TK-10, Renal Cancer; single concentration 10^−5 M
Experimental: as §1

NCI-H522 = conditions: NCI-H522, Non-Small Cell Lung Cancer; single concentration 10^−5 M
Experimental: as §1

MDA-MB-435 = conditions: MDA-MB-435, Melanoma; single concentration 10^−5 M
Experimental: as §1

SMILES: N#Cc1c(-c2ccc(F)cc2)cc(-c2c[nH]c3ccccc23)nc1-c1c[nH]c2ccccc12 [4d]
- Growth % (MDA-MB-231/ATCC): 102.47%
- Growth % (CCRF-CEM): 102.09%
- Growth % (SF-295): 102.68%
- Growth % (OVCAR-5): 109.33%
- Growth % (MOLT-4): 103.02%
- Growth % (T-47D): 89.92%
- Growth % (HL-60 (TB)): 98.89%
- Growth % (M14): 97.40%
- Growth % (COLO205): 113.48%
- Growth % (SK-MEL-2): 96.13%
- Growth % (HOP-62): 100.69%
- Growth % (SNB-19): 102.08%
- Growth % (RPMI-8226): 100.93%
- Growth % (K-562): 104.54%
- Growth % (LOX IMVI): 107.36%
- Growth % (SNB-75): 98.55%
- Growth % (U251): 94.85%
- Growth % (RXF 393): 111.59%
- Growth % (NCI-H460): 104.14%
- Growth % (SF-268): 101.12%
- Growth % (UO-31): 84.72%
- Growth % (DU-145): 106.26%
- Growth % (SW-620): 106.63%
- Growth % (SN12C): 98.76%
- Growth % (PC-3): 103.05%
- Growth % (KM12): 100.66%
- Growth % (SR): 89.11%
- Growth % (CAKI-1): 92.51%
- Growth % (HS 578T): 95.18%
- Growth % (HT29): 110.19%
- Growth % (IGROV1): 102.10%
- Growth % (BT-549): 108.84%
- Growth % (MCF7): 89.33%
- Growth % (MALME-3M): 101.85%
- Growth % (HCC-2998): 109.40%
- Growth % (TK-10): 127.59%
- Growth % (NCI-H522): 97.04%
- Growth % (MDA-MB-435): 107.27%

SMILES: COc1ccc(-c2cc(-c3c[nH]c4ccccc34)nc(-c3c[nH]c4ccccc34)c2C#N)cc1 [4e]
- Growth % (MDA-MB-231/ATCC): 102.65%
- Growth % (CCRF-CEM): 101.65%
- Growth % (SF-295): 95.83%
- Growth % (OVCAR-5): 103.69%
- Growth % (MOLT-4): 94.10%
- Growth % (T-47D): 86.61%
- Growth % (HL-60 (TB)): 106.85%
- Growth % (M14): 93.75%
- Growth % (COLO205): 102.89%
- Growth % (SK-MEL-2): 100.09%
- Growth % (HOP-62): 90.00%
- Growth % (SNB-19): 102.42%
- Growth % (RPMI-8226): 104.41%
- Growth % (K-562): 96.99%
- Growth % (LOX IMVI): 86.06%
- Growth % (SNB-75): 97.63%
- Growth % (U251): 102.14%
- Growth % (RXF 393): 94.44%
- Growth % (NCI-H460): 107.18%
- Growth % (SF-268): 105.10%
- Growth % (UO-31): 74.78%
- Growth % (DU-145): 108.02%
- Growth % (SW-620): 113.43%
- Growth % (SN12C): 99.19%
- Growth % (PC-3): 89.91%
- Growth % (KM12): 96.65%
- Growth % (SR): 89.59%
- Growth % (CAKI-1): 84.47%
- Growth % (HS 578T): 100.69%
- Growth % (HT29): 105.49%
- Growth % (IGROV1): 85.18%
- Growth % (BT-549): 97.48%
- Growth % (MCF7): 90.48%
- Growth % (MALME-3M): 113.82%
- Growth % (HCC-2998): 128.75%
- Growth % (TK-10): 141.73%
- Growth % (NCI-H522): 92.71%
- Growth % (MDA-MB-435): 104.98%

SMILES: N#Cc1c(-c2ccc(Cl)cc2)cc(-c2c[nH]c3ccccc23)nc1-c1c[nH]c2ccccc12 [4c]
- Growth % (MDA-MB-231/ATCC): 97.80%
- Growth % (CCRF-CEM): 101.97%
- Growth % (SF-295): 99.60%
- Growth % (OVCAR-5): 105.15%
- Growth % (MOLT-4): 99.33%
- Growth % (T-47D): 100.54%
- Growth % (HL-60 (TB)): 102.90%
- Growth % (M14): 102.44%
- Growth % (COLO205): 106.5%
- Growth % (SK-MEL-2): 103.64%
- Growth % (HOP-62): 93.62%
- Growth % (SNB-19): 101.34%
- Growth % (RPMI-8226): 102.27%
- Growth % (K-562): 97.57%
- Growth % (LOX IMVI): 101.39%
- Growth % (SNB-75): 100.87%
- Growth % (U251): 99.27%
- Growth % (RXF 393): 114.27%
- Growth % (NCI-H460): 106.15%
- Growth % (SF-268): 103.64%
- Growth % (UO-31): 70.21%
- Growth % (DU-145): 108.08%
- Growth % (SW-620): 106.55%
- Growth % (SN12C): 97.84%
- Growth % (PC-3): 100.13%
- Growth % (KM12): 102.73%
- Growth % (SR): 98.46%
- Growth % (CAKI-1): 87.84%
- Growth % (HS 578T): 100.65%
- Growth % (HT29): 107.41%
- Growth % (IGROV1): 91.10%
- Growth % (BT-549): 113.43%
- Growth % (MCF7): 89.99%
- Growth % (MALME-3M): 107.80%
- Growth % (HCC-2998): 117.80%
- Growth % (TK-10): 138.81%
- Growth % (NCI-H522): 96.57%
- Growth % (MDA-MB-435): 106.56%
